Results reported in article PMC4965013, “Open Source Drug Discovery with the Malaria Box Compound Collection for Neglected Diseases and Beyond” (PLoS Pathogens, 2016).
Where two headings read alike, the source gives them in different places.

Columns and labels:
[1] = system: P. falciparum 3D7 trophozoites; test: Metabolomic fingerprint profiling LC-MS; type: cell-based, Plasmodium falciparum; design: UDP-D-glucose / ADP-D-glucose: unit not given here
[2] = system: P. falciparum 3D7; test: [3H]-hypoxanthine growth inhibition, modified HCO3- or O2; type: cell-based; details: for IC50: Plasmodium falciparum
[3] = system: P. falciparum; test: EC50 listed in S2 Table Metabolomics (used to set the concentration tested); type: cell-based; details: Plasmodium falciparum; EC50 used for Factor_XEC50 in metabolomics; read-out: EC50_nM
[4] = metabolite level change after treatment

**Q.** Which Acetyllysine ([1]; S2 Table Metabolomics, metabolite Acetyllysine) does the source give for `CCOC(=O)c1cn(CC)c2cc(N(C)CCc3ccc(OC)c(OC)c3)c(F)cc2c1=O` [MMV665977] here?
**A.** -0.2007

**Q.** What about the N-acetyl-L-ornithine ([1]; S2 Table Metabolomics, metabolite N-acetyl-L-ornithine) of the same molecule?
**A.** 0.023

**Q.** And the N-carbamoyl-L-aspartate ([1]; S2 Table Metabolomics, metabolite N-carbamoyl-L-aspartate)?
**A.** 3.959

**Q.** And the NADPH ([1]; S2 Table Metabolomics, metabolite NADPH)?
**A.** -0.01115

**Q.** And the dAMP ([1]; S2 Table Metabolomics, metabolite dAMP)?
**A.** 0.7523

**Q.** And the dCMP ([1]; S2 Table Metabolomics, metabolite dCMP)?
**A.** 0.5464

**Q.** And the dTDP ([1]; S2 Table Metabolomics, metabolite dTDP)?
**A.** 0.1785

**Q.** And the dTMP ([1]; S2 Table Metabolomics, metabolite dTMP)?
**A.** 0.2344

**Q.** What about the dTTP ([1]; S2 Table Metabolomics, metabolite dTTP) of the same molecule?
**A.** -0.3388

**Q.** And the dihydroorotate ([1]; S2 Table Metabolomics, metabolite dihydroorotate)?
**A.** 4.609

**Q.** What about the orotate ([1]; S2 Table Metabolomics, metabolite orotate) of the same molecule?
**A.** -0.8094

**Q.** What about the DLH ([1]; S2 Table Metabolomics, peptide DLH) of the same molecule?
**A.** -0.4948

**Q.** And the DLS/SDL/SID ([1]; S2 Table Metabolomics, peptide DLS/SDL/SID)?
**A.** -0.3029

**Q.** And the PD ([1]; S2 Table Metabolomics, peptide PD)?
**A.** 0.1633

**Q.** And the PEE ([1]; S2 Table Metabolomics, peptide PEE)?
**A.** -0.1468

**Q.** And the PVNF ([1]; S2 Table Metabolomics, peptide PVNF)?
**A.** -0.5192

**Q.** And the 3-phosphoglycerate ([1]; metabolite 3-phosphoglycerate, S2 Table Metabolomics)?
**A.** -0.3617

**Q.** And the ADP-D-glucose ([1]; metabolite ADP-D-glucose, S2 Table Metabolomics)?
**A.** 0.08874

**Q.** And the ATP ([1]; metabolite ATP, S2 Table Metabolomics)?
**A.** -0.1759

**Q.** And the CDP ([1]; metabolite CDP, S2 Table Metabolomics, change in metabolite level after compound treatment)?
**A.** 0.4208

**Q.** And the D-sedoheptulose-1/7-phosphate ([1]; metabolite D-sedoheptulose-1/7-phosphate, S2 Table Metabolomics, change in metabolite level after compound treatment)?
**A.** 0.7585

**Q.** And the FAD ([1]; metabolite FAD, S2 Table Metabolomics)?
**A.** 0.2291

**Q.** And the GMP ([1]; metabolite GMP, S2 Table Metabolomics, change in metabolite level after compound treatment)?
**A.** -0.3238

**Q.** What about the “NAD+” value ([1]; metabolite NAD+, S2 Table Metabolomics) of the same molecule?
**A.** 0.1079

**Q.** What about the “NADP+” value ([1]; metabolite NADP+, S2 Table Metabolomics) of the same molecule?
**A.** 0.05477

**Q.** And the “Octoluse Bisphosphate” value ([1]; metabolite Octoluse Bisphosphate, S2 Table Metabolomics, change in metabolite level after compound treatment)?
**A.** -0.07826

**Q.** And the Pyroglutamic acid ([1]; metabolite Pyroglutamic acid, S2 Table Metabolomics)?
**A.** -0.2687

**Q.** What about the UDP-D-glucose ([1]; metabolite UDP-D-glucose, S2 Table Metabolomics) of the same molecule?
**A.** 0.1563

**Q.** What about the UDP-D-glucuronate ([1]; metabolite UDP-D-glucuronate, S2 Table Metabolomics) of the same molecule?
**A.** 0.07018

**Q.** And the UDP-N-acetyl-glucosamine ([1]; metabolite UDP-N-acetyl-glucosamine, S2 Table Metabolomics)?
**A.** 0.07391

**Q.** What about the UDP ([1]; metabolite UDP, S2 Table Metabolomics, change in metabolite level after compound treatment) of the same molecule?
**A.** 0.2133

**Q.** And the UMP ([1]; metabolite UMP, S2 Table Metabolomics, change in metabolite level after compound treatment)?
**A.** -0.8829

**Q.** And the UTP ([1]; metabolite UTP, S2 Table Metabolomics, change in metabolite level after compound treatment)?
**A.** -1.518

**Q.** What about the a-ketoglutarate ([1]; metabolite a-ketoglutarate, S2 Table Metabolomics) of the same molecule?
**A.** -0.594

**Q.** And the citrate/isocitrate ([1]; metabolite citrate/isocitrate, S2 Table Metabolomics, change in metabolite level after compound treatment)?
**A.** -0.7044

**Q.** What about the cytidine ([1]; metabolite cytidine, S2 Table Metabolomics) of the same molecule?
**A.** 0.327

**Q.** And the dATP ([1]; metabolite dATP, S2 Table Metabolomics)?
**A.** 0.6974

**Q.** What about the dGMP/AMP ([1]; metabolite dGMP/AMP, S2 Table Metabolomics, change in metabolite level after compound treatment) of the same molecule?
**A.** -0.4295

**Q.** What about the fumarate ([1]; metabolite fumarate, S2 Table Metabolomics, change in metabolite level after compound treatment) of the same molecule?
**A.** 0.007291

**Q.** What about the glucose-1/6-phosphate ([1]; metabolite glucose-1/6-phosphate, S2 Table Metabolomics, change in metabolite level after compound treatment) of the same molecule?
**A.** 0.2816

**Q.** And the glycerate ([1]; metabolite glycerate, S2 Table Metabolomics, change in metabolite level after compound treatment)?
**A.** -0.4808

**Q.** And the guanine ([1]; metabolite guanine, S2 Table Metabolomics, change in metabolite level after compound treatment)?
**A.** 0.3502

**Q.** What about the guanosine ([1]; metabolite guanosine, S2 Table Metabolomics, change in metabolite level after compound treatment) of the same molecule?
**A.** 0.225

**Q.** What about the hypoxanthine ([1]; metabolite hypoxanthine, S2 Table Metabolomics) of the same molecule?
**A.** -0.2655

**Q.** And the indole ([1]; metabolite indole, S2 Table Metabolomics)?
**A.** -0.1099

**Q.** What about the inosine ([1]; metabolite inosine, S2 Table Metabolomics, change in metabolite level after compound treatment) of the same molecule?
**A.** 0.2015

**Q.** What about the 2_3-Diphosphoglyceric acid [1, 4] of the same molecule?
**A.** 0.344

**Q.** And the 4-phosphopantothenate [1, 4]?
**A.** -0.03263

**Q.** What about the 6-phospho-D-gluconate [1, 4] of the same molecule?
**A.** 0.2163

**Q.** What about the FMN [1, 4] of the same molecule?
**A.** 0.1874

**Q.** What about the IMP [1, 4] of the same molecule?
**A.** 0.1512

**Q.** What about the Pyrophosphate [1, 4] of the same molecule?
**A.** 0.2053

**Q.** What about the Sedoheptoluse bisphosphate [1, 4] of the same molecule?
**A.** 0.01379

**Q.** And the cyclic-AMP [1, 4]?
**A.** 0.02919

**Q.** What about the glutathione disulfide [1, 4] of the same molecule?
**A.** 0.2163

**Q.** And the lactate [1, 4]?
**A.** -0.4098

**Q.** What about the myo-inositol [1, 4] of the same molecule?
**A.** -0.567

**Q.** What about the nicotinate ([1]; metabolite nicotinate, S2 Table Metabolomics) of the same molecule?
**A.** -0.4053

**Q.** What about the ornithine ([1]; metabolite ornithine, S2 Table Metabolomics) of the same molecule?
**A.** 0.1382

**Q.** What about the phosphoenolpyruvate ([1]; metabolite phosphoenolpyruvate, S2 Table Metabolomics) of the same molecule?
**A.** -0.3385

**Q.** And the pyruvate ([1]; metabolite pyruvate, S2 Table Metabolomics, change in metabolite level after compound treatment)?
**A.** -0.6681

**Q.** What about the ribose-phosphate ([1]; metabolite ribose-phosphate, S2 Table Metabolomics) of the same molecule?
**A.** -0.2449

**Q.** And the sarcosine/alanine ([1]; metabolite sarcosine/alanine, S2 Table Metabolomics, change in metabolite level after compound treatment)?
**A.** 0.1312

**Q.** What about the sn-glycerol-3-phosphate ([1]; metabolite sn-glycerol-3-phosphate, S2 Table Metabolomics) of the same molecule?
**A.** 0.2048

**Q.** What about the succinate/methylmalonic acid ([1]; metabolite succinate/methylmalonic acid, S2 Table Metabolomics, change in metabolite level after compound treatment) of the same molecule?
**A.** -0.4008

**Q.** And the uridine ([1]; metabolite uridine, S2 Table Metabolomics, change in metabolite level after compound treatment)?
**A.** -0.5319

**Q.** What about the xanthosine ([1]; metabolite xanthosine, S2 Table Metabolomics, change in metabolite level after compound treatment) of the same molecule?
**A.** -0.3168

**Q.** And the “fold change (IC50normal/ IC50hypoxia)” value [2]?
**A.** 4.1

**Q.** What about the IC50 ([2]; 3D7, read-out: P. falciparum 3D7 IC50 1% O2, 1% O2 hypoxia) of the same molecule?
**A.** 85 nM

**Q.** What about the IC50 ([2]; 3D7, read-out: P. falciparum 3D7 IC50 5% O2) of the same molecule?
**A.** 345 nM

**Q.** What about the EC50 [3] of the same molecule?
**A.** 205 nM
